Read-outs that look alike come from different tables or passages of the source.
Assays:
hNPY2R = molecular target: T1, hNPY2R (Homo sapiens, UniProt P49146); test: hNPY2R CreLuc assay in 0.5% and 100% plasma (HEK-293 CRE-luciferase reporter cells); type: cell-based; settings: HEK-293 reporter cells
T1 construct: expressed in transfected cells; host or cells: HEK-293 CRE-luciferase reporter cells
T1 sequence (P49146 1-381): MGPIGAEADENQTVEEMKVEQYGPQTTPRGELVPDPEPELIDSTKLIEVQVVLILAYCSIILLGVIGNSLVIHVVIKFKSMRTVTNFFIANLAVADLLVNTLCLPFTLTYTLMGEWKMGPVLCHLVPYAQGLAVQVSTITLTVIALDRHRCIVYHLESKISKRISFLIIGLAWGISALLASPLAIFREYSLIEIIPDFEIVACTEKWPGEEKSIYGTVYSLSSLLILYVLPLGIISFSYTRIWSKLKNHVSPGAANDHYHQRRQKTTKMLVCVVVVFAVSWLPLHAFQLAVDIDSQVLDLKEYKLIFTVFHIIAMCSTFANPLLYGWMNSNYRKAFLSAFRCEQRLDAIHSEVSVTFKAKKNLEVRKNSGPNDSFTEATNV
Source text: CHO and HEK-293 recombinant cell lines express a luciferase reporter gene under control of the CAMP responsive element (CRE). As a second recombinant protein the GLP-1 and NPY2 receptors were expressed in the reporter gene HEK cells, and the GIP receptor was expressed in the reporter gene CHO cells, respectively. Stimulation of these recombinant cells with an agonist leads to an increase of intracellular CAMP levels. In the presence of CAMP, the transcription factor CRE binding protein (CREB) binds to the CRE and to the CREB binding protein (CBP), which leads to transcription of the luciferase reporter gene. Peptides upon serial-dilution in 100% DMSO were transferred into 384-well assay plates with 5 μl pre-dispensed assay buffer (1×HBSS, 20 mM HEPES, pH7.4 supplemented with 0.5% human plasma) using acoustic dispensing on a Labcyte ECHO. Cryo-preserved transgenic reporter gene cells were thawed in assay buffer. 20 μl (10.000 cells/well) were added to the plate with the peptides and incubated for 4 hours at 37° C. in a humidified incubator. Following incubation, assay plates are equilibrated to room temperature, followed by addition of 25 μl of Bright-Glo™ Luciferase reagent, incubation at room temperature for 10 minutes and analysis of luminescence (Envision Reader). […] EC50 values were calculated by non-linear regression using sigmoid concentration-response with variable slope.
The same assays were run in the presence of 100% plasma with no additional buffer constituents.

hGIPR = molecular target: T2, hGIPR (Homo sapiens, UniProt P48546); test: hGIPR CreLuc assay in 0.5% and 100% plasma (CHO CRE-luciferase reporter cells); type: cell-based; settings: 0.5% human plasma, read-out: hGIPR 0.5% hP
T2 construct: expressed in transfected cells; host or cells: CHO CRE-luciferase reporter cells
T2 sequence (P48546 22-466): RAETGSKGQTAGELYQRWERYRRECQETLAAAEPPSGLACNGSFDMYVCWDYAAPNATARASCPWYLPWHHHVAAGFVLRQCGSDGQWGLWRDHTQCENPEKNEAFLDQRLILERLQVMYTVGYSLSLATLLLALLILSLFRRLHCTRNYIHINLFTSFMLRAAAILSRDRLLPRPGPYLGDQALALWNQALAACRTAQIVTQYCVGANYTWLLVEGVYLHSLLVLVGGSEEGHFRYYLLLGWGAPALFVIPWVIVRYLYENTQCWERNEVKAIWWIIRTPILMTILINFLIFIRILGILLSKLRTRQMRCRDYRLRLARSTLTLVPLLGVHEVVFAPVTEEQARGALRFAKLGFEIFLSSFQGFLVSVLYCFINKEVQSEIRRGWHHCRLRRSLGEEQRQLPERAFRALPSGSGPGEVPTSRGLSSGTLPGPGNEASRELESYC

[1] = Solubility in 0.1 M phosphate buffer at pH 7; type: physicochemical; settings: 0.1 M phosphate buffer at pH 7, 10 mg/mL final peptide concentration, shaking 2 hours at room temperature, peptides as TFA-salts; measured sample pH 6.5-7.0
[2] = 0.5% human plasma, read-out: hNPY2R 0.5% hP

EC50 (hNPY2R; [2]) | EC50 (hNPY2R; 100% human plasma, read-out: hNPY2R 100% hP) | EC50 (hGIPR) | solubility at 2 h [1] | SMILES
13.3 nM | 20.3 nM | 0.7 nM | 3900 µg/mL | CC[C@H](C)[C@H](NC(=O)[C@H](CO)NC(=O)[C@H](Cc1ccc(O)cc1)NC(=O)[C@H](CC(=O)O)NC(=O)[C@H](CO)NC(=O)[C@@H](NC(=O)[C@H](Cc1ccccc1)NC(=O)[C@@H](NC(=O)CNC(=O)[C@H](CCC(=O)O)NC(=O)C(C)(C)NC(=O)[C@@H](N)Cc1ccc(O)cc1)[C@@H](C)O)[C@@H](C)O)C(=O)NC(C)(C)C(=O)N[C@@H](CC(C)C)C(=O)N[C@@H](CCC(=O)O)C(=O)N[C@@H](CCCCN)C(=O)N[C@@H](CCC(N)=O)C(=O)N[C@@H](C)C(=O)N[C@@H](CCC(N)=O)C(=O)NC(C)(C)C(=O)N[C@@H](C)C(=O)N[C@@H](Cc1ccccc1)C(=O)N[C@H](C(=O)N[C@@H](CCCNC(=N)N)C(=O)N[C@@H](Cc1c[nH]cn1)C(=O)N[C@@H](CC(C)C)C(=O)N[C@@H](CC(C)C)C(=O)N[C@@H](CC(N)=O)C(=O)N[C@@H](CCCCNC(=O)[C@@H](N)CCCCNC(=O)CC[C@H](NC(=O)CC[C@H](NC(=O)CC[C@H](NC(=O)CC[C@H](NC(=O)CC[C@H](NC(=O)CC[C@H](NC(=O)CCCCCCCCCCCCCCCCC(=O)O)C(=O)O)C(=O)O)C(=O)O)C(=O)O)C(=O)O)C(=O)O)C(=O)NC(C)(C)C(=O)N[C@H](C(=O)N[C@@H](CCCNC(=N)N)C(=O)N[C@@H](CCC(N)=O)C(=O)N[C@@H](CCCNC(=N)N)C(=O)N[C@@H](Cc1ccc(O)cc1)C(N)=O)[C@@H](C)O)C(C)C [Compound 107, Y-Aib-E-G-T-F-T-S-D-Y-S-I-Aib-L-E-K-Q-A-Q-Aib-A-F-V-R-H-L-L-N-K(1,3)-Aib-T-R-Q-R-Y-NH2.C18DA-gGlu-gGlu-gGlu-gGlu-gGlu-gGlu-eLys(1,2)]
32.8 nM | – | 0.6 nM | 5300 µg/mL | CC[C@H](C)[C@H](NC(=O)[C@H](CC(C)C)NC(=O)[C@H](Cc1c[nH]cn1)NC(=O)[C@H](CCCNC(=N)N)NC(=O)[C@@H](NC(=O)[C@H](Cc1ccccc1)NC(=O)[C@H](C)NC(=O)C(C)(C)NC(=O)[C@H](CCC(N)=O)NC(=O)[C@H](C)NC(=O)[C@H](CCC(N)=O)NC(=O)[C@H](CCCCN)NC(=O)[C@H](CCC(=O)O)NC(=O)[C@H](CC(C)C)NC(=O)C(C)(C)NC(=O)[C@@H](NC(=O)[C@H](CO)NC(=O)[C@H](Cc1ccc(O)cc1)NC(=O)[C@H](CC(=O)O)NC(=O)[C@H](CO)NC(=O)[C@@H](NC(=O)[C@H](Cc1ccccc1)NC(=O)[C@@H](NC(=O)CNC(=O)[C@H](CCC(=O)O)NC(=O)C(C)(C)NC(=O)[C@@H](N)Cc1ccc(O)cc1)[C@@H](C)O)[C@@H](C)O)[C@@H](C)CC)C(C)C)C(=O)N[C@@H](CC(N)=O)C(=O)N[C@@H](CCCCNC(=O)CC[C@H](NC(=O)CC[C@H](NC(=O)CC[C@H](NC(=O)CC[C@H](NC(=O)CC[C@H](NC(=O)CCCCCCCCCCCCCCCCCCC(=O)O)C(=O)O)C(=O)O)C(=O)O)C(=O)O)C(=O)O)C(=O)NC(C)(C)C(=O)N[C@H](C(=O)N[C@@H](CCCNC(=N)N)C(=O)N[C@@H](CCC(N)=O)C(=O)N[C@@H](CCCNC(=N)N)C(=O)N[C@@H](Cc1ccc(O)cc1)C(N)=O)[C@@H](C)O [Compound 176, Y-Aib-E-G-T-F-T-S-D-Y-S-I-Aib-L-E-K-Q-A-Q-Aib-A-F-V-R-H-L-I-N-K(1,3)-Aib-T-R-Q-R-Y-NH2.C20DA-gGlu-gGlu-gGlu-gGlu-gGlu(1,2)]
17.1 nM | – | 0.5 nM | 9100 µg/mL | CC[C@H](C)[C@H](NC(=O)[C@H](CC(C)C)NC(=O)[C@H](Cc1c[nH]cn1)NC(=O)[C@H](CCCNC(=N)N)NC(=O)[C@@H](NC(=O)[C@H](Cc1ccccc1)NC(=O)[C@H](CCC(=O)O)NC(=O)C(C)(C)NC(=O)[C@H](CCC(N)=O)NC(=O)[C@H](C)NC(=O)[C@H](CCC(N)=O)NC(=O)[C@H](CCCCN)NC(=O)[C@H](CCC(=O)O)NC(=O)[C@H](CC(C)C)NC(=O)C(C)(C)NC(=O)[C@@H](NC(=O)[C@H](CO)NC(=O)[C@H](Cc1ccc(O)cc1)NC(=O)[C@H](CC(=O)O)NC(=O)[C@H](CO)NC(=O)[C@@H](NC(=O)[C@H](Cc1ccccc1)NC(=O)[C@@H](NC(=O)CNC(=O)[C@H](CCC(=O)O)NC(=O)C(C)(C)NC(=O)[C@@H](N)Cc1ccc(O)cc1)[C@@H](C)O)[C@@H](C)O)[C@@H](C)CC)C(C)C)C(=O)N[C@@H](CC(N)=O)C(=O)N[C@@H](CCCCNC(=O)[C@@H](N)CCCCNC(=O)[C@H](CCC(=O)O)NC(=O)CC[C@H](NC(=O)CC[C@H](NC(=O)CC[C@H](NC(=O)CC[C@H](NC(=O)CC[C@H](NC(=O)CC[C@H](NC(=O)CCCCCCCCCCCCCCCCC(=O)O)C(=O)O)C(=O)O)C(=O)O)C(=O)O)C(=O)O)C(=O)O)C(=O)N[C@@H](CC(C)C)C(=O)N[C@H](C(=O)N[C@@H](CCCNC(=N)N)C(=O)N[C@@H](CCC(N)=O)C(=O)N[C@@H](CCCNC(=N)N)C(=O)N[C@@H](Cc1ccc(O)cc1)C(N)=O)[C@@H](C)O [Compound 32, Y-Aib-E-G-T-F-T-S-D-Y-S-I-Aib-L-E-K-Q-A-Q-Aib-E-F-V-R-H-L-I-N-K(1,3)-L-T-R-Q-R-Y-NH2.C18DA-gGlu-gGlu-gGlu-gGlu-gGlu-gGlu-Glu-eLys(1,2)]
17.1 nM | – | 0.3 nM | 5000 µg/mL | CC[C@H](C)[C@H](NC(=O)[C@H](CO)NC(=O)[C@H](Cc1ccc(O)cc1)NC(=O)[C@H](CC(=O)O)NC(=O)[C@H](CO)NC(=O)[C@@H](NC(=O)[C@H](Cc1ccccc1)NC(=O)[C@@H](NC(=O)CNC(=O)[C@H](CCC(=O)O)NC(=O)C(C)(C)NC(=O)[C@@H](N)Cc1ccc(O)cc1)[C@@H](C)O)[C@@H](C)O)C(=O)N[C@@H](C)C(=O)N[C@@H](CC(C)C)C(=O)N[C@@H](CCC(=O)O)C(=O)N[C@@H](CCCCN)C(=O)N[C@@H](CCC(N)=O)C(=O)N[C@@H](C)C(=O)N[C@@H](CCC(N)=O)C(=O)NC(C)(C)C(=O)N[C@@H](C)C(=O)N[C@@H](Cc1ccccc1)C(=O)N[C@H](C(=O)N[C@@H](CCCNC(=N)N)C(=O)N[C@@H](Cc1c[nH]cn1)C(=O)N[C@@H](CC(C)C)C(=O)N[C@H](C(=O)N[C@@H](CC(N)=O)C(=O)N[C@@H](CCCCNC(=O)[C@@H](N)CCCCNC(=O)CC[C@H](NC(=O)CC[C@H](NC(=O)CC[C@H](NC(=O)CC[C@H](NC(=O)CC[C@H](NC(=O)CC[C@H](NC(=O)CCCCCCCCCCCCCCCCC(=O)O)C(=O)O)C(=O)O)C(=O)O)C(=O)O)C(=O)O)C(=O)O)C(=O)NC(C)(C)C(=O)N[C@H](C(=O)N[C@@H](CCCNC(=N)N)C(=O)N[C@@H](CCC(N)=O)C(=O)N[C@@H](CCCNC(=N)N)C(=O)N[C@@H](Cc1ccc(O)cc1)C(N)=O)[C@@H](C)O)[C@@H](C)CC)C(C)C [Compound 165, Y-Aib-E-G-T-F-T-S-D-Y-S-I-A-L-E-K-Q-A-Q-Aib-A-F-V-R-H-L-I-N-K(1,3)-Aib-T-R-Q-R-Y-NH2.C18DA-gGlu-gGlu-gGlu-gGlu-gGlu-gGlu-eLys(1,2)]

— patent publication US20250382344A1, “Soluble GLP1/GIP/NPY2 Receptor Triple Agonists” (Boehringer Ingelheim International GmH, priority 2024, published 2025)
